Key:
Scirpus juncoides [1] = assay: Test Example 1: herbicidal effect test by soil treatment in paddy field; type: in vivo; details: 120 g/10a, paddy soil treatment just after sowing, 14 days after treatment
Outline: (§1)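 Emulsifiable-concentrate formulation, water-diluted, dosed onto flooded paddy pots at 120 g a.i./10 are directly after sowing. Readout: % suppression by dry weight relative to untreated, 14 d, duplicate plots.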

Echinochloa crus-galli [2] = assay: as above; type: in vivo; details: 120 g/10a, paddy soil treatment just after sowing, 14 days after treatment
Outline: as §1

Monochoria vaginalis [3] = assay: as above; type: in vivo; details: 120 g/10a, paddy soil treatment just after sowing, 14 days after treatment
Outline: as §1

Lindernia pyxidaria [4] = assay: as above; type: in vivo; details: 120 g/10a, paddy soil treatment just after sowing, 14 days after treatment
Outline: as §1

Scirpus juncoides [5] = assay: Test Example 2: herbicidal effect test by treatment during growing period in paddy field; type: in vivo; details: treatment 7 days after sowing, 120 g/10a, evaluated 14 days after treatment
Outline: (§2)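 Paddy soil in flooded pots (~3 cm water), 30 seeds per species sown 0–1 cm deep, greenhouse. Emulsifiable concentrate diluted in water and dripped into the water 7 days after sowing at 120 g a.i. per 10 are. Suppression (%) from dry weight vs untreated, 14 days post-treatment, two replicates.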

Echinochloa crus-galli [6] = assay: as above; type: in vivo; details: treatment 7 days after sowing, 120 g/10a, evaluated 14 days after treatment
Outline: as §2

Monochoria vaginalis [7] = assay: as above; type: in vivo; details: treatment 7 days after sowing, 120 g/10a, evaluated 14 days after treatment
Outline: as §2

Lindernia pyxidaria [8] = assay: as above; type: in vivo; details: treatment 7 days after sowing, 120 g/10a, evaluated 14 days after treatment
Outline: as §2

Chenopodium album [9] = assay: Test Example 4: herbicidal effect test by foliage treatment in upland field; type: in vivo; details: upland field foliage treatment 7 days after sowing; 120 g/10a; evaluated 14 days after treatment
Outline: (§3)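 Application of 120 g active ingredient per 10 are, as a water-diluted emulsifiable concentrate sprayed 7 days after sowing into alluvial soil. Effect is expressed as percent dry-weight reduction versus untreated plots at day 14, duplicate plots.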

Echinochloa crus-galli [10] = assay: as above; type: in vivo; details: upland field foliage treatment 7 days after sowing; 120 g/10a; evaluated 14 days after treatment
Outline: as §3

Amaranthus viridis [11] = assay: as above; type: in vivo; details: upland field foliage treatment 7 days after sowing; 120 g/10a; evaluated 14 days after treatment
Outline: as §3

crabgrass [12] = assay: as above; type: in vivo; details: upland field foliage treatment 7 days after sowing; 120 g/10a; evaluated 14 days after treatment
Outline: as §3

Chenopodium album [13] = assay: Test Example 3: herbicidal effect test by soil treatment in upland field; type: in vivo; details: upland field soil treatment 1 day after sowing; 120 g/10a; evaluated 14 days after treatment
Outline: (§4)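 Pots of alluvial field soil sown with 20 seeds per weed species; one day later emulsifiable concentrate diluted in water and sprayed on soil surface at 100 L per 10 are, 120 g active ingredient per 10 are. Suppression rate (%) from dry weight versus untreated plots after 14 days, two replicates.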

Echinochloa crus-galli [14] = assay: as above; type: in vivo; details: upland field soil treatment 1 day after sowing; 120 g/10a; evaluated 14 days after treatment
Outline: as §4

Amaranthus viridis [15] = assay: as above; type: in vivo; details: upland field soil treatment 1 day after sowing; 120 g/10a; evaluated 14 days after treatment
Outline: as §4

crabgrass [16] = assay: as above; type: in vivo; details: upland field soil treatment 1 day after sowing; 120 g/10a; evaluated 14 days after treatment
Outline: as §4

SMILES | melting point [°C] | weed suppression rate, Scirpus juncoides (Scirpus juncoides [1]) [%] | weed suppression rate, Echinochloa crus-galli (Echinochloa crus-galli [2]) [%] | weed suppression rate, Monochoria vaginalis (Monochoria vaginalis [3]) [%] | weed suppression rate, Lindemia pyxidaria (Lindernia pyxidaria [4]) [%] | weed suppression rate, Scirpus juncoides (Scirpus juncoides [5]) [%] | weed suppression rate, Echinochloa crus-galli (Echinochloa crus-galli [6]) [%] | weed suppression rate, Monochoria vaginalis (Monochoria vaginalis [7]) [%] | weed suppression rate, Lindemia pyxidaria (Lindernia pyxidaria [8]) [%] | herbicidal effect (weed suppression rate), Chenopodium album (Chenopodium album [9]) [%] | herbicidal effect (weed suppression rate), Echinochloa crus-galli (Echinochloa crus-galli [10]) [%] | herbicidal effect (weed suppression rate), Amaranthus viridis (Amaranthus viridis [11]) [%] | herbicidal effect (weed suppression rate), Crabgrass (crabgrass [12]) [%] | herbicidal effect (weed suppression rate), Chenopodium album (Chenopodium album [13]) [%] | herbicidal effect (weed suppression rate), Echinochloa crus-galli (Echinochloa crus-galli [14]) [%] | herbicidal effect (weed suppression rate), Amaranthus viridis (Amaranthus viridis [15]) [%] | herbicidal effect (weed suppression rate), Crabgrass (crabgrass [16]) [%]
CCN(CC)C(=O)n1ncn(S(C)(=O)=O)c1=O [Compound 1-1] | 81.7 to 85.3 | – | – | – | – | – | – | – | – | – | – | – | – | – | – | – | –
CC(C)N(C(=O)n1ncn(S(=O)(=O)C2CCC2)c1=O)c1ccc(F)cc1F [Compound 1-269] | – | 90 | 100 | 100 | 100 | 90 | 100 | 90 | 100 | 80 | 80 | 90 | 90 | 90 | 90 | 90 | 90
Cc1ccc(N(C(=O)n2ncn(S(=O)(=O)N(C)C)c2=O)C(C)C)c(F)c1 [Compound 1-1117] | – | 90 | 90 | 80 | 80 | 90 | 90 | 80 | 80 | 80 | 80 | 90 | 90 | 80 | 80 | 90 | 90
CC(C)N(C(=O)n1ncn(S(=O)(=O)C2CC2)c1=O)c1c(F)cccc1F [Compound 1-200] | – | 100 | 100 | 80 | 100 | 100 | 100 | 90 | 80 | 70 | 100 | 80 | 100 | 40 | 100 | 40 | 100
CC(C)N(C(=O)n1ncn(S(=O)(=O)C2CC2)c1=O)c1ccc(F)c(F)c1F [Compound 1-203] | – | 100 | 100 | 90 | 100 | 100 | 100 | 100 | 80 | 80 | 100 | 100 | 100 | 60 | 80 | 90 | 80
C=CS(=O)(=O)n1cnn(C(=O)N(c2ccc(F)cc2F)C(C)C)c1=O [Compound 1-142] | – | 100 | 100 | 100 | 100 | 90 | 90 | 80 | 80 | 80 | 80 | 90 | 90 | 100 | 100 | 100 | 100

Further lines, with some results ahead:

melting point [°C] | SMILES | weed suppression rate, Scirpus juncoides (Scirpus juncoides [1]) [%] | weed suppression rate, Echinochloa crus-galli (Echinochloa crus-galli [2]) [%] | weed suppression rate, Monochoria vaginalis (Monochoria vaginalis [3]) [%] | weed suppression rate, Lindemia pyxidaria (Lindernia pyxidaria [4]) [%] | weed suppression rate, Scirpus juncoides (Scirpus juncoides [5]) [%] | weed suppression rate, Echinochloa crus-galli (Echinochloa crus-galli [6]) [%] | weed suppression rate, Monochoria vaginalis (Monochoria vaginalis [7]) [%] | weed suppression rate, Lindemia pyxidaria (Lindernia pyxidaria [8]) [%] | herbicidal effect (weed suppression rate), Chenopodium album (Chenopodium album [9]) [%] | herbicidal effect (weed suppression rate), Echinochloa crus-galli (Echinochloa crus-galli [10]) [%] | herbicidal effect (weed suppression rate), Amaranthus viridis (Amaranthus viridis [11]) [%] | herbicidal effect (weed suppression rate), Crabgrass (crabgrass [12]) [%] | herbicidal effect (weed suppression rate), Chenopodium album (Chenopodium album [13]) [%] | herbicidal effect (weed suppression rate), Echinochloa crus-galli (Echinochloa crus-galli [14]) [%] | herbicidal effect (weed suppression rate), Amaranthus viridis (Amaranthus viridis [15]) [%] | herbicidal effect (weed suppression rate), Crabgrass (crabgrass [16]) [%]
115.8 to 118.6 | CCN(CC)C(=O)n1ncn(S(=O)(=O)Cc2ccccc2)c1=O [Compound 1-968] | – | – | – | – | – | – | – | – | – | – | – | – | – | – | – | –
92 to 94 | CC(C)N(C(=O)n1ncn(S(=O)(=O)C(C)C)c1=O)c1ccccc1 [Compound 1-54] | 90 | 90 | 80 | 80 | 90 | 90 | 80 | 80 | 80 | 80 | 90 | 90 | – | – | – | –
102 to 104 | CC(C)N(C(=O)n1ncn(S(=O)(=O)C2CC2)c1=O)c1ccccc1 [Compound 1-168] | 90 | 90 | 80 | 80 | 90 | 90 | 80 | 80 | – | – | – | – | – | – | – | –
144 to 146 | CC(C)N(C(=O)n1ncn(S(=O)(=O)C2CC2)c1=O)c1ccc(F)cc1F [Compound 1-150, 4-cyclopropylsulfonyl-N-(2,4-difluorophenyl)-N-isopropyl-5-oxo-1,2,4-triazole-1-carboxamide] | 100 | 100 | 100 | 100 | 90 | 100 | 90 | 90 | 80 | 80 | 90 | 90 | 100 | 100 | 90 | 100

From patent US11076595B2, “1-(n,n-disubstituted carbamoyl) 4-(substituted sulfonyl)triazolin-5-one derivative, 4-(n,n-disubstituted carbamoyl) 1-(substituted sulfonyl)triazolin-5-one derivative, and herbicide containing said derivative as active ingredient” (HOKKO CHEMICAL INDUSTRY CO., LTD., priority 2017, dated 2021)
